Key:
[1] = target: T1, Islet amyloid precursor polypeptide, IAPP (Homo sapiens, UniProt P10997); experiment: In vitro assembly assay (thioflavin T fluorescence, with or without air-water interface), IAPP; type: biochemical; settings: ratio of IC50 with air-water interface (+AWI) to IC50 without (−AWI), IAPP at 4 μM; for Ratio IAPP IC50 (μm) +AWI/−AWI elongation: elongation rate
T1 construct: Purified synthetic peptides corresponding to IAPP (Bachem, Weil am Rhein, Germany); purchased Bachem, Weil am Rhein, Germany; host or cells: synthetic peptide
T1 sequence (P10997 34-70 limits assumed): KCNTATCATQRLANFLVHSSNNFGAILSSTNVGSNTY
Method: (§1) The assay is based upon the altered fluorescent properties of the dye thioflavin T when it is intercalated into stacked beta-strand structures, which includes amyloid fibrils. The assay is carried out in multi-well plates in which the air-water interface (AWI) can be independently occluded at any time in the assay by the insertion in any well of a hydrophilic poly-methyl-methacrylate cylinder (Perspex). The cylinder consists of a rod of 6.6 mm in diameter and 6 mm in height with a hemispherical tip. This provides a close fit for the circular cross-section of the well, minimising residual air-water interface, and the hemispherical contour on the inserted end serves to ensure that no air bubbles are trapped on insertion.
(§2) The assay has a final volume of 100 μl and contains a buffered isotonic solution (Phosphate Buffered Saline pH 7.4), 32 μM Thioflavin T (ThT), an amyloidogenic precursor peptide (Islet amyloid precursor polypeptide, IAPP at 4 μM, or Abeta1-40 at 12 μM, final concentration) and added compounds at indicated concentrations (dissolved in dimethyl sulphoxide, DMSO) or DMSO alone. Purified synthetic peptides corresponding to IAPP (Bachem, Weil am Rhein, Germany) and Aβ1-40 (EZBiolab, Carmel, Ind., USA) were dissolved in DMSO, sonicated, and centrifuged for 1 hour at 15,000 g and 4° C. before use (to remove any pre-aggregated species).
(§3) The ThT fluorescence signal was measured at 1 minute intervals (excitation 450 nm, emission 480 nm) in a 96-well plate (black wall, clear bottom; Greiner Bio-One, Stonehouse, Gloucestershire, UK) without shaking at 37° C. on a Polarstar plate reader (BMG Labtech, Aylesbury, Buckinghamshire, UK).
(§4) Any compound or physical device (e.g., Perspex cylinder) used was introduced at the same time in test (containing IAPP) and control wells (buffer and ThT without IAPP). Control values (with or without compounds or physical device) were subtracted from test values. At least 3 independent assays, with every assay done in duplicate wells, were performed and analyzed with the 2-sample t test.
(§5) A more detailed description of the IAPP and Aβ thioflavin/cylinder assay is given in Jean et al (2012) Biophysical Journal 102 1154-11.
(§6) The kinetics parameters were calculated from the ThT data as follows; the elongation rate was calculated from the slope at the inflection point of the sigmoidal curve; the plateau height was calculated by averaging the highest curve values (minimum of five values) attained at the end of the experiment; and the lag phase was calculated from the intercept on the time axis of the line formed tangent to the inflection point. At least three independent assays were performed, with every assay performed in duplicate wells. Statistical analysis was performed with the two-sample t-test. Details of the method of calculation of lag phase, elongation rate and plateau height are described in Trigg et al (2013) Biochemical Journal 456 67-80.

C. elegans = experiment: in vivo C. elegans model
Abeta1-40 = target: T2, Abeta1-40 (Homo sapiens, UniProt P05067); experiment: In vitro assembly assay (thioflavin T fluorescence), screen against Amyloid-beta (Aβ) peptides; type: biochemical; settings: Abeta1-40 at 12 μM
T2 construct: Abeta1-40 at 12 μM, final concentration; purchased EZBiolab, Carmel, Ind., USA; host or cells: synthetic peptide
Method: as §1, §2, §3, §4, §5, §6

T2 sequence (P05067 672-711 limits assumed): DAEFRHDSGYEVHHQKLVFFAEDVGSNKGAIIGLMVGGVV

| Ratio IAPP IC50 (μm) +AWI/−AWI elongation [1] | Ratio IAPP IC50 (μm) +AWI/−AWI Lag phase [1] | Active against Aβ (Abeta1-40) | SMILES | activity in an in vivo C. elegans model (C. elegans) |
| --- | --- | --- | --- | --- |
| 4 | 8 | – | Cc1cc(C)c2ccc(/C=C/c3ccccc3N)nc2c1O [Compound 131] | – |
| 3 | 32 | ✓ (rate) | Cc1cc(C)c2ccc(/C=C/c3ccccc3O)nc2c1O [Compound 214] | showed activity |
| 16 | 32 | – | Cc1cc(C)c2ccc(/C=C/c3ccc(O)c(O)c3)nc2c1O [Compound 221] | – |
| 3 | 11 | – | Cc1cc(C)c2ccc(/C=C/c3ccccc3[N+](=O)[O-])nc2c1O [Compound 222] | – |
| 4 | 3 | – | Cc1cc(C)c2ccc(/C=C/c3ccccc3)nc2c1O [Compound 225] | – |
| 3 | 1 | – | Cc1cc(C)c2ccc(/C=C/c3ccc(Br)o3)nc2c1O [Compound 226] | – |
| 31 | 32 | ✓ (rate) | Cc1cc(C)c2ccc(/C=C/c3cccc(O)c3)nc2c1O [Compound 227] | – |
| 32 | 32 | ✓ (rate) | Cc1cc(C)c2ccc(/C=C/c3ccccc3C#N)nc2c1O [Compound 229] | – |
| 21 | 21 | – | Cc1cc(C)c2ccc(/C=C/c3cccc([N+](=O)[O-])c3)nc2c1O [Compound 234] | – |
| 11 | 8 | ✓ | Cc1cc(C)c2ccc(/C=C/c3cc(C(=O)O)ccc3O)nc2c1O [Compound 236] | showed activity |
| 4 | 32 | – | COc1cc(/C=C/c2ccc3c(C)cc(C)c(O)c3n2)ccc1O [Compound 238] | – |
| 32 | 11 | – | Cc1cc(C)c2ccc(/C=C/c3ccc(OC(F)(F)F)cc3)nc2c1O [Compound 239] | – |
| 11 | 3 | No | Cc1cc(C)c2ccc(/C=C/c3ccc4c(c3)OCO4)nc2c1O [Compound 241] | showed activity |
| 32 | 32 | ✓ | Cc1cc(C)c2ccc(/C=C/C3CCCCC3)nc2c1O [Compound 245] | – |
| 12 | 32 | ✓ | Cc1cc(C)c2ccc(/C=C/c3cccnc3)nc2c1O [Compound 249] | showed activity |
| 21 | 21 | ✓ | Cc1cc(C)c2ccc(/C=C/c3cccc(C#N)c3)nc2c1O [Compound 251] | showed activity |
| 3 | 1 | – | Cc1cc(C)c2ccc(/C=C/c3ccc(Br)cc3)nc2c1O [Compound 252] | – |
| 1 | 4 | – | Cc1cc(C)c2ccc(/C=C/c3cccnc3Cl)nc2c1O [Compound 311] | – |
| 1 | 2 | – | COc1ccc(/C=C/c2ccc3c(C)cc(C)c(O)c3n2)cn1 [Compound 312] | – |
| >1 | 3 | – | Cc1cc(C)c2ccc(/C=C/c3cccnc3N)nc2c1O [Compound 321] | – |
| 1 | 4 | – | Cc1ccc(/C=C/c2ccc3c(C)cc(C)c(O)c3n2)cn1 [Compound 322] | – |
| 2.5 | 11 | – | Cc1cc(C)c2ccc(/C=C/c3ccc(N4CCOCC4)nc3)nc2c1O [Compound 323] | – |
| 4 | 21 | – | Cc1cc(C)c2ccc(/C=C/c3ccc(N4CCNCC4)nc3)nc2c1O [Compound 324] | – |
| 5 | 1 | – | Cc1cc(C)c2ccc(/C=C/c3cccnc3N3CCNCC3)nc2c1O [Compound 325] | – |
| 1 | 1 | – | Cc1cc(C)c2ccc(/C=C/c3cccnc3C)nc2c1O [Compound 326] | – |

From patent US9822078B2, “Quinoline compounds” (Oxford University Innovation Limited, priority 2014, dated 2017)
